Drawing on patent US12060349B2, “Glucosylceramide synthase inhibitors” (Genzyme Corporation, priority 2012, dated 2024), this text covers IC50 for 18 compounds.

Read-outs that look alike come from different tables or passages of the source.

Assay [1] has as its target T1, glucosylceramide synthase (Homo sapiens, UniProt Q16739).
T1 construct: Microsomes were isolated from A375 human melanoma cells; endogenous in cells; host or cells: A375 human melanoma cells (microsomal fraction, 100,000 g pellet)
T1 sequence (Q16739 1-394): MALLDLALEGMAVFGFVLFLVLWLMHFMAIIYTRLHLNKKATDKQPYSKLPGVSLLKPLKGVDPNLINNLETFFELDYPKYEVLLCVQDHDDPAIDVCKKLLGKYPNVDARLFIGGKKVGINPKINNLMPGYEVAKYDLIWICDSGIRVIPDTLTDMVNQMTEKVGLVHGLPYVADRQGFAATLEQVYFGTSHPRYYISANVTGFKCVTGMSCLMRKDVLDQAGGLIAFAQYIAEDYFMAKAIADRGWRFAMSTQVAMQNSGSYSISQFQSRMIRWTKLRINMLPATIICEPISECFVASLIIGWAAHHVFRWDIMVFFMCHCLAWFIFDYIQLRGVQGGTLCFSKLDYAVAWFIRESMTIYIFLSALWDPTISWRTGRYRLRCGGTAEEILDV
The assay can be described thus: microsomal assay measuring conversion of ceramide to glucosylceramide by HPLC (GCS IC50). Type of assay: biochemical. The following applies: concentration causing 50% inhibition of glucosylceramide synthase activity. In short, it runs like this: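 IC50 is the compound concentration halving glucosylceramide synthase activity. Activity was measured in microsomes, with HPLC quantifying glucosylceramide formed from ceramide.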

For assay [2], the system named is GM3 expression on the cell surface, B16 mouse melanoma cells. The assay can be described thus: cell based phenotypic assay, cell surface GM3 by antibody mediated immunofluorescence, B16 (GM3 B16 IC50). The following applies: Mus musculus, 50% inhibition of GM3 expression on the cell surface. In short, it runs like this:
(§1)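 Two melanoma lines, mouse B16 and human C32, were treated and surface GM3 quantified by antibody immunofluorescence for IC50. A parallel viability readout gives the concentration killing 50% of cells, with values over 10 indicating no cell death.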

For assay [3], the system named is GM3 expression on the cell surface, C32 human melanoma cells. Description: cell based phenotypic assay, cell surface GM3 by antibody mediated immunofluorescence, C32 (GM3 C32 IC50). To be noted: Homo sapiens, 50% inhibition of GM3 expression on the cell surface. In outline:
as §1

The subject of assay [4] is B16 mouse melanoma cells. The assay can be described thus: cell viability in the B16 cell-based assay (Viability, B16 IC50). The following applies: Mus musculus. In outline:
(§2)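 Viability readouts were run alongside the GM3 cell-surface assay in the same B16 and C32 cultures. A figure above 10 indicates no cell death.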

The subject of assay [5] is C32 human melanoma cells. Description: cell viability in the C32 cell-based assay (Viability, C32 IC50). To be noted: Homo sapiens, concentration causing 50% cell death, values greater than 10 represent a lack of cell death. In short, it runs like this: as §2
Where [6] appears, read: read-out: GM3 B16 IC50, B16 mouse melanoma cells.
The mark [7] stands for this setting: read-out: GM3 C32 IC50, C32 human melanoma cells.
Where [8] appears, read: B16, read-out: Viability, B16 IC50.
Where [9] appears, read: C32, read-out: Viability, C32 IC50, C32 cells.
[10] abbreviates: B16 mouse melanoma cells, read-out: GM3 B16 IC50.
The mark [11] stands for this setting: C32 human melanoma cells, read-out: GM3 C32 IC50.
[12] abbreviates: B16, B16 cells, concentration causing 50% cell death, values greater than 10 represent a lack of cell death, read-out: Viability, B16 IC50.
The mark [13] stands for this setting: C32, C32 cells, read-out: Viability, C32 IC50.

In general, IC50 refers to the concentration that inhibits the measured activity by half. With `COCC1(CS(=O)(=O)c2ccc(-c3ccc(C(C)(C)NC(=O)OC4CN5CCC4CC5)cc3)cc2)CC1` (stereo not drawn) [Example 249, Quinuclidin-3-yl (2-(4′-(((1-(methoxymethyl)cyclopropyl)methyl)sulfonyl)-[1,1′-biphenyl]-4-yl)propan-2-yl)carbamate], the IC50 in assay [1] was 53.5 nM; in assay [2] (setting [6]), 247 nM; in assay [3] (setting [7]), 5.82 nM; in assay [4] (setting [8]) it was no less than 10000 nM; in assay [5] (setting [9]) it was 2150 nM.

Turning to `COCCOc1ccc(-c2ccc(C(C)(C)NC(=O)N3CCN4CCC3CC4)cc2)cc1` [Example 161, N-(2-(4′-(2-Methoxyethoxy)-[1,1′-biphenyl]-4-yl)propan-2-yl)-1,4-diazabicyclo[3.2.2]nonane-4-carboxamide], the IC50 in assay [1] is 250 nM; in assay [2] (setting [10]), 311 nM; in assay [3] (setting [11]), 32.7 nM; in assay [4] (setting [12]), 3160 nM; in assay [5] (setting [13]) it was 3160 nM.

For the compound `CCC1(NC(=O)NC(C)(C)C#Cc2ccc(COCc3cccnc3)cc2)CN2CCC1CC2` (stereo not drawn) [Example 332, 1-(3-Ethylquinuclidin-3-yl)-3-(2-methyl-4-(4-((pyridin-3-ylmethoxy)methyl)phenyl)but-3-yn-2-yl)urea], the IC50 was 49.4 nM in assay [1]; 945 nM in assay [2] (setting [10]); 15.5 nM in assay [3] (setting [11]); no less than 10000 nM in assay [4] (setting [12]); no less than 10000 nM in assay [5] (setting [13]).

`COCCCc1ccc(-c2ccc(C3(NC(=O)NC4(C)CN5CCC4CC5)CC3)cc2)cc1` (stereo not drawn) [Example 214, 1-(1-(4′-(3-Methoxypropyl)-[1,1′-biphenyl]-4-yl)cyclopropyl)-3-(3-methylquinuclidin-3-yl)urea]: the IC50 in assay [1] was 3.29 nM; in assay [2] (setting [10]), 32.9 nM; in assay [3] (setting [11]), 1.26 nM; in assay [4] (setting [12]), no less than 10000 nM; in assay [5] (setting [13]), no less than 10000 nM.

As for `O=C(NC1(c2ccc(-c3ccc(COCc4cccnc4)cc3)cc2)CC1)OC1CN2CCC1CC2` (stereo not drawn) [Example 216, Quinuclidin-3-yl (1-(4′-((pyridin-3-ylmethoxy)methyl)-[1,1′-biphenyl]-4-yl)cyclopropyl)carbamate], the IC50 in assay [1] is 9.33 nM; in assay [2] (setting [6]), 201 nM; in assay [3] (setting [7]), 11.1 nM; in assay [4] (setting [8]) it was 7940 nM; in assay [5] (setting [9]), no less than 10000 nM.

For `CC1(NC(=O)C2CCN(c3nccc(Oc4ccc(F)cc4)n3)CC2)CCN2CCC1CC2` (stereo not drawn) [Example 115, 1-(4-(4-Fluorophenoxy)pyrimidin-2-yl)-N-(4-methyl-1-azabicyclo[3.2.2]nonan-4-yl)piperidine-4-carboxamide], the IC50 is 2.45 nM in assay [1]; 8.94 nM in assay [2] (setting [10]); 0.14 nM in assay [3] (setting [11]); 9300 nM in assay [4] (setting [12]); 46.4 nM in assay [5] (setting [13]).

For the compound `CC(C)(NC(=O)OC1CN2CCC1CC2)c1ccc(-c2ccc(OCCCC#N)cc2)cc1` (stereo not drawn) [Example 189, Quinuclidin-3-yl (2-(4′-(3-cyanopropoxy)-[1,1′-biphenyl]-4-yl)propan-2-yl)carbamate], the IC50 in assay [1] was 9.57 nM; in assay [2] (setting [6]), 86.5 nM; in assay [3] (setting [7]) it was 3.22 nM; in assay [4] (setting [8]), no less than 10000 nM; in assay [5] (setting [9]) it was 8470 nM.

For the compound `CC1(NC(=O)C2(F)CCN(c3nccc(OCc4ccc(F)cc4)n3)CC2)CCN2CCC1CC2` (stereo not drawn) [Example 124, 4-Fluoro-1-(4-((4-fluorobenzyl)oxy)pyrimidin-2-yl)-N-(4-methyl-1-azabicyclo[3.2.2]nonan-4-yl)piperidine-4-carboxamide], the IC50 turned out to be 0.553 nM in assay [1]; 17.8 nM in assay [2] (setting [10]); 0.0849 nM in assay [3] (setting [11]); 3420 nM in assay [4] (setting [12]); 100 nM in assay [5] (setting [13]).

On to `O=C(N1CCN(c2ccc(-c3ccccc3)cc2)CC1)N1CCN2CCC1CC2` [Example 5, (4-([1,1′-Biphenyl]-4-yl)piperazin-1-yl)(1,4-diazabicyclo[3.2.2]nonan-4-yl)methanone], for which the IC50 in assay [1] turned out to be 30000 nM; in assay [2] (setting [10]), 2000 nM; in assay [3] (setting [11]), 2000 nM; in assay [4] (setting [12]), 2000 nM; in assay [5] (setting [13]) it was 2000 nM.

On to `COCc1ccc(-c2ccnc(N3CCN(C(=O)NC4(C)CCN5CCC4CC5)CC3C(F)F)n2)cc1` (stereo not drawn) [Example 150, 3-(Difluoromethyl)-4-(4-(4-(methoxymethyl)phenyl)pyrimidin-2-yl)-N-(4-methyl-1-azabicyclo[3.2.2]nonan-4-yl)piperazine-1-carboxamide], for which the IC50 in assay [1] was found to be 23 nM; in assay [2] (setting [10]) it was 195 nM; in assay [3] (setting [11]) it was 1.06 nM; in assay [4] (setting [12]), 5440 nM; in assay [5] (setting [13]) it was 1000 nM.

In the case of `COCCCOc1cnc(-c2ccc(C(C)(C)NC(=O)N3CCN4CCC3CC4)cc2)cn1` [Example 322, N-(2-(4-(5-(3-methoxypropoxy)pyrazin-2-yl)phenyl)propan-2-yl)-1,4-diazabicyclo[3.2.2]nonane-4-carboxamide], the IC50 is 1070 nM in assay [1]; 1440 nM in assay [2] (setting [10]); 99.9 nM in assay [3] (setting [11]); no less than 10000 nM in assay [4] (setting [12]); 1000 nM in assay [5] (setting [13]).

Turning to `CC1(NC(=O)C2CCN(c3ccc(-c4ccccc4)cc3)CC2)CN2CCC1CC2` (stereo not drawn) [Example 37, 1-([1,1′-Biphenyl]-4-yl)-N-(3-methylquinuclidin-3-yl)piperidine-4-carboxamide], the IC50 in assay [1] is 1550 nM; in assay [2] (setting [10]) it was 1800 nM; in assay [3] (setting [11]), 131 nM; in assay [4] (setting [12]), 7050 nM; in assay [5] (setting [13]), 6900 nM.

`CNC(=O)c1ccc(-c2ccc(C(C)(C)NC(=O)N3CCN4CCC3CC4)cc2)cc1` [Example 256, N-(2-(4′-(Methylcarbamoyl)biphenyl-4-yl)propan-2-yl)-1,4-diazabicyclo[3.2.2]nonane-4-carboxamide]: the IC50 in assay [1] was 12300 nM; in assay [2] (setting [10]), 4440 nM; in assay [3] (setting [11]) it was 729 nM; in assay [4] (setting [12]), no less than 10000 nM; in assay [5] (setting [13]) it was no less than 10000 nM.

In the case of `COCCCOc1ccc(-c2ccnc(N3CCC(C(=O)NC4CN5CCC4CC5)CC3)n2)cc1` (stereo not drawn) [Example 72, 1-(4-(4-(3-Methoxypropoxy)phenyl)pyrimidin-2-yl)-N-(quinuclidin-3-yl)piperidine-4-carboxamide], the IC50 in assay [1] is 1.16 nM; in assay [2] (setting [10]), 79.5 nM; in assay [3] (setting [11]), 0.26 nM; in assay [4] (setting [12]), 8630 nM; in assay [5] (setting [13]) it was 464 nM.

Take `CC(C)(NC(=O)OC1CN2CCC1CC2)c1ccc(-c2ccc(N3CCOCC3)cc2)cc1` (stereo not drawn) [Example 231, Quinuclidin-3-yl (2-(4′-morpholino-[1,1′-biphenyl]-4-yl)propan-2-yl)carbamate]: the IC50 in assay [1] is 71 nM; in assay [2] (setting [6]), 230 nM; in assay [3] (setting [7]) it was 15 nM; in assay [4] (setting [8]) it was 2000 nM; in assay [5] (setting [9]), 2000 nM.

Take `CC1(NC(=O)N2CCN(c3ccc(-c4ccccc4)cc3)CC2)CCN2CCC1CC2` (stereo not drawn) [Example 4, 4-([1,1′-Biphenyl]-4-yl)-N-(4-methyl-1-azabicyclo[3.2.2]nonan-4-yl)piperazine-1-carboxamide]: the IC50 was found to be 1000 nM in assay [1]; 1380 nM in assay [2] (setting [10]); 62.5 nM in assay [3] (setting [11]); 6160 nM in assay [4] (setting [12]); 6310 nM in assay [5] (setting [13]).

As to `COCCCOc1ccc(-c2nc(N3CCC(C(=O)NC4(C)CN5CCC4CC5)CC3)ncc2F)cc1` (stereo not drawn) [Example 63, 1-(5-Fluoro-4-(4-(3-methoxypropoxy)phenyl)pyrimidin-2-yl)-N-(3-methylquinuclidin-3-yl)piperidine-4-carboxamide], the IC50 was 0.586 nM in assay [1]; 40.8 nM in assay [2] (setting [10]); 0.0988 nM in assay [3] (setting [11]); 3520 nM in assay [4] (setting [12]); 100 nM in assay [5] (setting [13]).

Turning to `CC1(NC(=O)C2CCN(c3cccc(-c4ccccc4)c3)CC2)CCN2CCC1CC2` (stereo not drawn) [Example 36, 1-([1,1′-Biphenyl]-3-yl)-N-(4-methyl-1-azabicyclo[3.2.2]nonan-4-yl)piperidine-4-carboxamide], the IC50 in assay [1] is 10.3 nM; in assay [2] (setting [10]) it was 136 nM; in assay [3] (setting [11]) it was 2.5 nM; in assay [4] (setting [12]), 7570 nM; in assay [5] (setting [13]) it was 1000 nM.
